# In patent US20250161309A1, “TOPICAL COMPOSITIONS AND USES THEROF” (TOPADUR PHARMA AG, priority 2022, published 2025):
# Columns and labels:
# [1] = system: C57BL/6 mouse model of alopecia; experiment: Topical administration and hair growth in C57BL/6 mouse model of alopecia (telogen phase, clipped dorsal skin); format: in vivo; conditions: female mice
# From the text: Dorsal hair of C57BL/6 mouse is known to have a time synchronized hair cycle. From about 18-21 days of age (2-3 weeks old) and 47-95 days of age (6-14 weeks old), the dorsal hair are in the telogen/quiescent phase (visually pink skin) [Lee B H, Lee J S, Kim Y C. Hair growth-promoting effects of lavender oil in C57BL/6 mice. Toxicol Res. (2016) 32(2):103-108; Choi H I, Kang B M, Jang J, Hwang S T, Kwon O. Novel effect of sildenafil on hair growth. Biochem Biophys Res Commun. (2018) 505(3):685-691]. C57BL/6 mouse therefore is a well-established model for studying hair growth promotion.
# Male and female C57BL/6 mice of 6 to 9 weeks of age in stable telogen phase of hair growth cycle were used (obtained from Vivo Bio Tech Ltd, Telangana, India).
# 50 μL of a clear solution of respective 0.02%, 0.002% and 0.0002% (w/v) concentrations of Cpd 1 in the corresponding vehicle (PEG-400:EtOH/7:3) (PEG-400: Central Drug House Ltd. Dehli, India; Ethanol: Changshu Hongsheng fine chemicals Co. Ltd. China) and the positive control, 2% solution (female) or 5% (male) (w/v) Minoxidil (Chemieliva, China) in the corresponding vehicle (PEG-400:EtOH/7:3) were topically applied to the clipped area on the dorsal back of the mice. The solutions covered a circular area of approximately 2 cm^2. The treatment regimen was twice daily application for 5 days/week for total of 4 weeks.
# The selected animals on day 1 weighted on average 20.05 g±0.17 ranging from 19.8 to 20.2 g. The hair on the dorsal back (approx. 4×4 cm^2) of these animals were clipped without touching the skin of the animal, using an electric clipper, on day 0 before the treatment with Cpd 1 and the hair was collected. The treatment followed by visual analysis for anagen onset, skin color change and appearance of any hair growth were monitored. After completion of the experiment, the dorsal skin of all the animals was removed and visual melanogenesis was reported. The skin sections were then preserved in 10% formalin solution for further histopathology analysis.
# Animals were observed during 30 days and the hair growth score was recorded on daily basis. The criteria for scoring of hair growth is as follows: no hair growth, pink skin—score 0; skin colour changes from pink to grey/light grey without visible hair growth—score 0.5 onset of anagen (skin colour changes from grey/light grey to dark grey/black without visible hair growth)—score 1; sparse hair growth—score 1.5; diffuse short hair growth—score 2, moderate hair growth—score 2.5 and dense, normal coat hair—score 3 (Lee B H, Lee J S, Kim Y C. Hair growth-promoting effects of lavender oil in C57BL/6 mice. Toxicol Res. (2016) 32(2):103-108).
# Photographs of the animals were captured before the initiation and during the course of the study.
# (§1) After completion of the experiments all animals were sacrificed by euthanasia (Choi H I, Kang B M, Jang J, Hwang S T, Kwon O. Novel effect of sildenafil on hair growth. Biochem Biophys Res Commun. (2018) 505(3):685-691). The dorsal skin of each animal was then removed by peeling. The peeled skin was spread and checked visually for the induction of melanogenesis indicated by visual blackening on the reverse side of the skin. The skin samples were evenly spread on a pre-labelled glass slide and kept in 10% formalin until further use. Later, the skin samples were embedded in paraffin and sectioned at 5 microns using a microtome and the corresponding slides per animal were prepared. The slides obtained were used for Haematoxylin & Eosin (H&E) staining and in the transverse and longitudinal sections' photomicrographs data, the total number of follicles in the dermis and the sub cutis were determined for each animal. The skin thickness was measured using Image J 1.44 software.
# The statistical analyses were performed using GraphPad Prism 9.0.0 software. Statistical significance was determined by One-way or Two-Way ANOVA followed by Tukey's multiple comparison test. […]
# [2] = system: C57BL/6 mouse model for chemotherapy-induced alopecia (CIA); experiment: Preventive C57BL/6 mouse model of cyclophosphamide (chemotherapy)-induced alopecia (CIA), topical administration; format: in vivo; conditions: female mice, 2% Minoxidil
# Experimental: Female C57BL/6 mice (Vivo Bio Tech Ltd, Telangana, India) of 6 to 9 weeks of age in stable telogen phase of hair growth cycle were used.
# 100 μL of a clear solution of respective 0.0004%, 0.002% (w/v) concentrations of Cpd 1 in the corresponding vehicle (PEG-400:EtOH/7:3) (PEG-400: Central Drug House Ltd. Dehli, India; Ethanol: Changshu Hongsheng fine chemicals Co. Ltd. China) and the positive control, 2% solution (w/v) Minoxidil (Chemieliva, China) in the corresponding vehicle (PEG-400:EtOH/7:3) were topically applied to the depilated area on the dorsal back of female mice. The solutions covered a circular area of approximately 4 cm^2. The treatment regimen was twice daily for 7 days before Cyclophosphamide injection and afterwards for 3 weeks.
# Animals (female) on day 1 weighted on average 18.8 g+0.2 ranging from 18.5 to 19.3 g. The animals were exposed by gentle clipping of hair from the dorsal back using an electric clipper. The following day, animals with clear skin were depilated using a depilatory cream. To evaluate the preventive potential of Cpd 1 in the chemotherapy-induced alopecia mouse model, animals were treated topically with 0.0004% and 0.002% Cpd 1, 2% Minoxidil and vehicle from day 1 onwards on the dorsal depilated skin with twice daily application regimen until day 10, when all the animals have attained the anagen stage. On day 11 after depilation, no application of the Cpd 1 or vehicle was done. This was considered a wash-out period. On day 12 after depilation, the animals were given intraperitoneal injection of cyclophosphamide (CYP-HiMedia Laboratories, Mumbai, India) at the dose of 150 mg/kg body weight. One day of wash-out period was given to the animals before restarting the treatment with Cpd 1. The treatment regimen was reinitiated with 0.0004% and 0.002% Cpd 1, 2% Minoxidil and vehicle in the respective groups for further 3 weeks. All the animals were observed from day 1 (experiment start) till day 30 (experiment termination and animal sacrifice day) and the hair growth score was recorded on a daily basis. The criteria for scoring of hair growth is as follows: no hair growth, pink skin—score 0; skin colour changes from pink to grey/light grey without visible hair growth—score 0.5; onset of anagen (skin colour changes from grey/light grey to dark grey/black without visible hair growth)—score 1; sparse hair growth—score 1.5; diffuse short hair growth—score 2, moderate hair growth—score 2.5 and dense, normal coat hair—score 3 (Lee B H, Lee J S, Kim Y C. Hair growth-promoting effects of lavender oil in C57BL/6 mice. Toxicol Res. (2016) 32(2):103-108). Photographs of the animals were captured before the initiation and during the course of the study. […]
# as §1, with “software. […]” for “software.”
smiles,measurement,setting,value
"CCCOc1ccc(S(=O)(=O)N2CCN(CCO[N+](=O)[O-])CC2)cc1-c1nc2c(CCC)cn(CC)c2c(=O)[nH]1 [Cpd 2, 2-(4-((3-(5-ethyl-4-oxo-7-propyl-4,5-dihydro-3H-pyrrolo[3,2-d]pyrimidin-2-yl)-4-propoxyphenyl)sulfonyl)piperazin-1-yl)ethyl nitrate]",number of follicles in the subcutis layer of the skin and total follicle counts compared to control group,[1],considerable higher number
same,animals with visual melanogenesis in peeled skin,"[1]; 0.002% (w/v), end of study",1/5
same,skin thickness compared to vehicle and 2% Minoxidil groups,[1]; 0.02% (w/v),increased
same,animals with visual melanogenesis in peeled skin,"[1]; 0.02% (w/v), end of study",1/5
same,"anagen hair follicles (histology, H&E) compared to control groups",[1]; Cpd 2-treated groups,more
same,area of black skin compared to control groups,[1]; at day 30,larger
same,adverse effects in relation to general health or body weight,"[1]; topical twice daily, 5 days/week, 4 weeks, compared to vehicle group",No adverse effects
same,day of skin colour change from pink to light grey (transition from telogen to anagen phase),"[1]; treated group 2 (Table 2: 0.002% (w/v)), after hair growth induction",10 day
same,hair growth score among treatment groups,"[1]; treated group 2 (Table 2: 0.002% (w/v)), at day 30, followed by low dose groups and Minoxidil group",maximal
same,hair growth (score) compared to 2% Minoxidil,"[1]; treated group 2 (Table 2: 0.002% (w/v)), at days 25, 29 and 30",significant increase
same,hair growth (score) compared to vehicle,"[1]; treated group 2 (Table 2: 0.002% (w/v), Composition A5), from day 23 on",significantly higher
same,hair growth compared to vehicle group,"[1]; treated group 3 (Table 2: 0.02% (w/v), Composition A6), at day 29 and 30",significantly higher
"Nc1cc(N2CCCCC2)nc(N)[n+]1[O-] [Minoxidil, 2,4-diamino-6-piperidinopyrimidine-3-oxide, reference compound]",visual melanogenesis in peeled skin,"[1]; positive control 2% (w/v) Minoxidil, end of study",No visual melanogenesis
same,animals with complete hair growth (hair growth score of 3),[2],3/7
same,animals with moderate hair growth (hair growth score of 2-2.5),[2],4/7
same,attainment of hair growth compared to vehicle,[2],faster attainment
same,depth and development of dermal papilla and long hair shaft of hair follicles observed (longitudinal skin sections),[2],majority of the animals
same,thickness of the skin compared to vehicle group,[2],slightly increase
same,mice with visual melanogenesis in peeled skin,[2]; end of study,7/7
same,"Ki-67 score (positive cells near the follicular region, semi-quantitative grading)",[2]; vehicle 0.4,1.1
same,"CD-31 mean score (perifollicular angiogenesis, semi-quantitative grading)",[2]; vehicle group 0.8,1.4
